Tests used:
[1] = Cytotoxicity against human HT-29 cells after 72 hrs by MTT assay; settings: HT-29, 72 h
[2] = Cytotoxicity against human MKN45 cells after 72 hrs by MTT assay; settings: MKN-45, 72 h
[3] = Cytotoxicity against human A549 cells after 72 hrs by MTT assay; settings: A549, 72 h
[4] = molecular target: Hepatocyte growth factor receptor (Homo sapiens, UniProt P08581); assay: Inhibition of c-MET (unknown origin) using poly (Glu, Tyr) 4:1 as substrate after 30 mins by HTRF assay
[5] = molecular target: Vascular endothelial growth factor receptor 2 (Homo sapiens, UniProt P35968); assay: Inhibition of VEGFR-2 (unknown origin)
[6] = molecular target: T1, Receptor-type tyrosine-protein kinase FLT3 (Homo sapiens, UniProt P36888); assay: Inhibition of FLT3 (unknown origin)
T1 sequence (P36888 whole entry): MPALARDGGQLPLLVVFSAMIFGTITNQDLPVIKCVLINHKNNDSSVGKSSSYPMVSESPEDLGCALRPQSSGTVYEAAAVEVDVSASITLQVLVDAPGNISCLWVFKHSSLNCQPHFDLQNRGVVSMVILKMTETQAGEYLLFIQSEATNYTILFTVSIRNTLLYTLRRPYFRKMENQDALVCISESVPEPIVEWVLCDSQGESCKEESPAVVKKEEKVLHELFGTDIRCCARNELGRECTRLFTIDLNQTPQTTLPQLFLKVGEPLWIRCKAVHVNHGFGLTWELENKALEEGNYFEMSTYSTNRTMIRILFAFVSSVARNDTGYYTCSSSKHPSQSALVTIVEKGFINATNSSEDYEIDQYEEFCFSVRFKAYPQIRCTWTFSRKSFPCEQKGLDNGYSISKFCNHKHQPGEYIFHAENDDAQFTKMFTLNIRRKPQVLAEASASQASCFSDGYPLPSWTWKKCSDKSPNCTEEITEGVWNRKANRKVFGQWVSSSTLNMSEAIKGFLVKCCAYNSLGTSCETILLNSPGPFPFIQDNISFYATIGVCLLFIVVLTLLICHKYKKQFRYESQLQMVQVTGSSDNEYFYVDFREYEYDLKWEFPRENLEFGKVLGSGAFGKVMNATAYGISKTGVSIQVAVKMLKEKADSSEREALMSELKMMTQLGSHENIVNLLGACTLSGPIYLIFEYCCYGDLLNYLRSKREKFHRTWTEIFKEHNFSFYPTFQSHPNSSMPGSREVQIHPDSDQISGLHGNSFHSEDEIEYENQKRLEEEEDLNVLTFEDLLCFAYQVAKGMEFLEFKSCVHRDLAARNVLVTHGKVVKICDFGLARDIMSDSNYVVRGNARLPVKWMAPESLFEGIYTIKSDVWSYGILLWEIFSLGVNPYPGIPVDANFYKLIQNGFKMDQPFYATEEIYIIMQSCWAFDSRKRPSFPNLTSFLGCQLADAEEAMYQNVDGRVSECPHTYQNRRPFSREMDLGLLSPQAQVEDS

[7] = molecular target: ALK tyrosine kinase receptor (Homo sapiens, UniProt Q9UM73); assay: Inhibition of ALK (unknown origin)
[8] = molecular target: Epidermal growth factor receptor (Homo sapiens, UniProt P00533); assay: Inhibition of EGFR (unknown origin)
[9] = molecular target: Mast/stem cell growth factor receptor Kit (Homo sapiens, UniProt P10721); assay: Inhibition of c-KIT (unknown origin)
HT-29 = assay: Potency index, ratio of foretinib IC50 to compound IC50 for human HT-29 cells; format: functional
MKN-45 = assay: Potency index, ratio of foretinib IC50 to compound IC50 for human MKN45 cells; format: functional
A549 = assay: Potency index, ratio of foretinib IC50 to compound IC50 for human A549 cells; format: functional

Sequence of ALK tyrosine kinase receptor (Q9UM73 whole entry): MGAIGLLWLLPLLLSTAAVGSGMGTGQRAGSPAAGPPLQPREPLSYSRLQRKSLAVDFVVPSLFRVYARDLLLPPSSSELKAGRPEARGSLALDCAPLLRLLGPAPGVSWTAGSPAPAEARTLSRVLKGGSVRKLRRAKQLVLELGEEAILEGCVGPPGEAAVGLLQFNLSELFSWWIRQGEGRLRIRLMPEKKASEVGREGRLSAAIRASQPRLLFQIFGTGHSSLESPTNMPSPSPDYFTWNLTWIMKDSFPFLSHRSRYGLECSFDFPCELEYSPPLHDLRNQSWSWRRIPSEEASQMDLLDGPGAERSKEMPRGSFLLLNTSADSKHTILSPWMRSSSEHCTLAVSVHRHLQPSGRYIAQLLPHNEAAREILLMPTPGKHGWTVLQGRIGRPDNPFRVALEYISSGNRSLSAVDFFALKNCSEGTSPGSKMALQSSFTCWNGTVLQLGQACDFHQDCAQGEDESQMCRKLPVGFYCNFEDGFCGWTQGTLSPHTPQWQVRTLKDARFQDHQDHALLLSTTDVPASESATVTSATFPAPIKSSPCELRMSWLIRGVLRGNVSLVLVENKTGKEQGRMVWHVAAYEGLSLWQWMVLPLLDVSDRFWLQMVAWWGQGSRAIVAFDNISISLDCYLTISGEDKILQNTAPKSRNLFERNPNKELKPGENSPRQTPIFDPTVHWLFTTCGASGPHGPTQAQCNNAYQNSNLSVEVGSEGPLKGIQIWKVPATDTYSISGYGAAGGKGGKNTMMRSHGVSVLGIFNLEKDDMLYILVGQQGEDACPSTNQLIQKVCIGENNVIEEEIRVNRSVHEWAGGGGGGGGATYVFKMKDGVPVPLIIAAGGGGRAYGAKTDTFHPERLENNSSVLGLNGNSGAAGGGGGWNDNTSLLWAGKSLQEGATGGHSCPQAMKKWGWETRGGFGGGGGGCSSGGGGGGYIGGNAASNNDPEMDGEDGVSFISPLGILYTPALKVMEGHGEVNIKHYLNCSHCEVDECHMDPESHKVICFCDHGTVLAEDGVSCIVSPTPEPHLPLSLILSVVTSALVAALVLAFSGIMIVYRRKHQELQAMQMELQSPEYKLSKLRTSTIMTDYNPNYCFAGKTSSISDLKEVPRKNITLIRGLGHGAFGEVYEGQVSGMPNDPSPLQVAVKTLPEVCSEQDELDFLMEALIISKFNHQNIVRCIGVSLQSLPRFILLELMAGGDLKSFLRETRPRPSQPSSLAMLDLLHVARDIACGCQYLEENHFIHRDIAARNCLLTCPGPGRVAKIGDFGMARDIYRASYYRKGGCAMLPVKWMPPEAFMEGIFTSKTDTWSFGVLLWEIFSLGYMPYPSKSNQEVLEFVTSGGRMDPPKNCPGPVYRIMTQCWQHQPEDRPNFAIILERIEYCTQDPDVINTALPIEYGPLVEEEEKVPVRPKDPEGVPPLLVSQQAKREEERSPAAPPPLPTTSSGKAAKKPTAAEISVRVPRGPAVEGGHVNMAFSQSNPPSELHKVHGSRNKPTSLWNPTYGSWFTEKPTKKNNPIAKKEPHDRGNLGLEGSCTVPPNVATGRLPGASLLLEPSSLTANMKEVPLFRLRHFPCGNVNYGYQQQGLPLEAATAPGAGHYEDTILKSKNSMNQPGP
Sequence of Hepatocyte growth factor receptor (P08581 whole entry): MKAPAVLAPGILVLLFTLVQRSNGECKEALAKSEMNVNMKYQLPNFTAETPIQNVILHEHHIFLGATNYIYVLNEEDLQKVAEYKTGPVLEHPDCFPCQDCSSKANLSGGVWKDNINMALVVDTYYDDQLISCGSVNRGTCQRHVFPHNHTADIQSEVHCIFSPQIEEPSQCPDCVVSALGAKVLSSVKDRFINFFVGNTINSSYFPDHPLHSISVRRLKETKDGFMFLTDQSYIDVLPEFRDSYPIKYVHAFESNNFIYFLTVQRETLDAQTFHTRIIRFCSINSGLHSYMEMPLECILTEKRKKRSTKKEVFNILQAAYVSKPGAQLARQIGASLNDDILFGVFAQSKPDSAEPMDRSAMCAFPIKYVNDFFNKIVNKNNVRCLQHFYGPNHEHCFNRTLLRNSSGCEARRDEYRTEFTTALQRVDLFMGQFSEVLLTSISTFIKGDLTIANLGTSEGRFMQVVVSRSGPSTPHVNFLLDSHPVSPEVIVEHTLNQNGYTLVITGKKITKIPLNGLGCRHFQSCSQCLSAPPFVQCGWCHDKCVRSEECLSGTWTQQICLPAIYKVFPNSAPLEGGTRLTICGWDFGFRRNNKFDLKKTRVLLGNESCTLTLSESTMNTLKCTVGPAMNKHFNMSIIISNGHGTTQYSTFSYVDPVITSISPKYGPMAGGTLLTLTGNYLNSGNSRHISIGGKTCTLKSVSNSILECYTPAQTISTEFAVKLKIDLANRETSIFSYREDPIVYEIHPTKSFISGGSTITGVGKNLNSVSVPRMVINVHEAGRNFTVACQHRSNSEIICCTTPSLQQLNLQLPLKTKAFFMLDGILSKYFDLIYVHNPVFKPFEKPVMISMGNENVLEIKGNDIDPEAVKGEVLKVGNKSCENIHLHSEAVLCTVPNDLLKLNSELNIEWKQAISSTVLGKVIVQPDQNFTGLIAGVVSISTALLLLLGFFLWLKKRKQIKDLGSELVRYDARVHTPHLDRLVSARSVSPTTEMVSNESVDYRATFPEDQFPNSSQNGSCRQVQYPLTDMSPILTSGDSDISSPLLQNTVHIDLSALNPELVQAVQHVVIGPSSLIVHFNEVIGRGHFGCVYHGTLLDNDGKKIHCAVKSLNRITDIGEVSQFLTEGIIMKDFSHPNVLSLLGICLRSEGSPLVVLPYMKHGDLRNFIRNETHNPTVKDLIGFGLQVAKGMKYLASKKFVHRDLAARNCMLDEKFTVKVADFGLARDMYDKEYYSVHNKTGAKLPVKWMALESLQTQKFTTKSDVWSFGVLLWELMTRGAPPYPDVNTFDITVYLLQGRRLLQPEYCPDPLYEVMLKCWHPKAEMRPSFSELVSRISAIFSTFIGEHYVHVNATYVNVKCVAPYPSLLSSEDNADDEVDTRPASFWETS
Sequence of Epidermal growth factor receptor (P00533 whole entry): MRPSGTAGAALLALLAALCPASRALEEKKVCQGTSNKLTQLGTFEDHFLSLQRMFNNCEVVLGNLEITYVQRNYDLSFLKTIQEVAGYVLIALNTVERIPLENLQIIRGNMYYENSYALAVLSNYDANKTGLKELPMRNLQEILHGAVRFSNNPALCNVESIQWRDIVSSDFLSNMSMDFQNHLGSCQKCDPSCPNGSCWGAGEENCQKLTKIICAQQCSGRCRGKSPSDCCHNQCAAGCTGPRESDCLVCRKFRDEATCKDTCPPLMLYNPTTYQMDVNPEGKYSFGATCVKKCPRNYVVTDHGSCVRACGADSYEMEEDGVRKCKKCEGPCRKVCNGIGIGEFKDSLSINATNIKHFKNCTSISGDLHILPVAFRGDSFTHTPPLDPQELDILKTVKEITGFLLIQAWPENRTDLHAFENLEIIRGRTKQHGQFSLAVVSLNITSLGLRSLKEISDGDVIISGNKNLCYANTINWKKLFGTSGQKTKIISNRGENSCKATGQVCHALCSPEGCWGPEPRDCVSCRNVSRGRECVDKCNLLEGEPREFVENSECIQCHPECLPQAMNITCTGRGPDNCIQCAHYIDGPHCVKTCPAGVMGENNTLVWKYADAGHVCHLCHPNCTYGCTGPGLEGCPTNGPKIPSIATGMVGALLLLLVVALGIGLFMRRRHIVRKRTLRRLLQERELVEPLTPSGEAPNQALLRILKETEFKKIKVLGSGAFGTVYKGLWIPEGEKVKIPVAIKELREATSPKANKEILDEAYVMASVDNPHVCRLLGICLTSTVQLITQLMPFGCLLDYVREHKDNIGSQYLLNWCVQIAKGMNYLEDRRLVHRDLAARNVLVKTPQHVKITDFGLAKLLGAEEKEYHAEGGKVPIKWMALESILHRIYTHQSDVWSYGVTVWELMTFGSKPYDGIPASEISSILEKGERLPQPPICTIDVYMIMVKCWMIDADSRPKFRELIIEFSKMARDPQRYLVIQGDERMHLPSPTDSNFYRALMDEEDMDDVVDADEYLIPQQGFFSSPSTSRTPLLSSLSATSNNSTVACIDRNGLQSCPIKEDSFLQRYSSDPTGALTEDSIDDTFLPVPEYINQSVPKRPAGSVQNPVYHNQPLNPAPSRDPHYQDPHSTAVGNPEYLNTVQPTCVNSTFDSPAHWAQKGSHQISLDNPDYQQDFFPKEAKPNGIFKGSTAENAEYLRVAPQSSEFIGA

SMILES | IC50 [1] [nM] | IC50 [2] [nM] | IC50 [3] [nM] | other results
COc1cc2c(Oc3ccc(NC(=O)/C=C/S(=O)(=O)c4ccccc4OC)cc3F)ccnc2cc1OCCCN1CCN(C)CC1 | 270 | 430 | 320 | –
COc1cc2c(Oc3ccc(NC(=O)c4cn(-c5ccc(Cl)cc5)cn4)cc3F)ccnc2cc1OCCCN1CCN(C)CC1 | 1350 | 4110 | 5200 | –
COc1cc2c(Oc3ccc(NC(=O)c4cn(-c5ccccc5OC)cn4)cc3F)ccnc2cc1OCCCN1CCOCC1 | 200 | 320 | 150 | –
COc1cc2c(Oc3ccc(NC(=O)/C=C/S(=O)(=O)c4ccccc4OC)cc3F)ccnc2cc1OCCCN1CCCCC1 | 660 | 980 | 470 | –
COc1cc2c(Oc3ccc(NC(=O)/C=C/S(=O)(=O)c4ccc(C)cc4)cc3F)ccnc2cc1OCCCN1CCN(C)CC1 | 2070 | 2510 | 1510 | –
COc1cc2c(Oc3ccc(NC(=O)c4cn(-c5ccccc5OC)cn4)cc3F)ccnc2cc1OCCCN1CCCCC1 | 100 | 260 | 120 | –
COc1cc2c(Oc3ccc(NC(=O)c4cn(-c5ccc(Cl)cc5)cn4)cc3F)ccnc2cc1OCCCN1CCCCC1 | 2780 | 5910 | 6560 | –
COc1cc2c(Oc3ccc(NC(=O)c4cn(-c5cc(C)ccc5C)cn4)cc3F)ccnc2cc1OCCCN1CCN(C)CC1 | 470 | 650 | 350 | –
COc1ccc(S(=O)(=O)/C=C/C(=O)Nc2ccc(Oc3ccnc4cc(OCCCN5CCCCC5)c(OC)cc34)c(F)c2)cc1 | 1650 | 3580 | 2220 | –
COc1cc2c(Oc3ccc(NC(=O)c4cn(-c5ccccc5OC(F)(F)F)cn4)cc3F)ccnc2cc1OCCCN1CCCCC1 | 250 | 190 | 270 | –
COc1cc2c(Oc3ccc(NC(=O)c4cn(-c5ccccc5OC(F)(F)F)cn4)cc3F)ccnc2cc1OCCCN1CCOCC1 | 430 | 180 | 520 | –
COc1cc2c(Oc3ccc(NC(=O)/C=C/S(=O)(=O)c4ccccc4F)cc3F)ccnc2cc1OCCCN1CCN(C)CC1 | 150 | 280 | 150 | –
COc1cc2c(Oc3ccc(NC(=O)/C=C/S(=O)(=O)c4ccccc4OC)cc3F)ccnc2cc1OCCCN1CCC(C)CC1 | 1960 | 2030 | 3000 | –
COc1ccc(S(=O)(=O)/C=C/C(=O)Nc2ccc(Oc3ccnc4cc(OCCCN5CCN(C)CC5)c(OC)cc34)c(F)c2)cc1 | 1660 | 2770 | 1870 | –
COc1cc2c(Oc3ccc(NC(=O)c4cn(-c5ccc(Cl)cc5Cl)cn4)cc3F)ccnc2cc1OCCCN1CCCCC1 | 4300 | 6240 | 7490 | –
COc1cc2c(Oc3ccc(NC(=O)c4cn(-c5cc(C)ccc5C)cn4)cc3F)ccnc2cc1OCCCN1CCCCC1 | 580 | 830 | 510 | –
COc1cc2c(Oc3ccc(NC(=O)c4cn(-c5ccccc5OC)cn4)cc3F)ccnc2cc1OCCCN1CCN(C)CC1 | 80 | 220 | 70 | IC50 [4]: 1.1 nM; IC50 [5]: 589 nM; IC50 [6]: 400 nM; IC50 [7]: > 3330 nM; IC50 [8]: 690 nM; IC50 [9]: 270 nM; Ratio IC50 (HT-29): 3.1; Ratio IC50 (MKN-45): 1.4; Ratio IC50 (A549): 2.1
COc1cc2c(Oc3ccc(NC(=O)c4cn(-c5ccc(Cl)cc5Cl)cn4)cc3F)ccnc2cc1OCCCN1CCN(C)CC1 | 3050 | 4840 | 3850 | –
COc1cc2c(Oc3ccc(NC(=O)/C=C/S(=O)(=O)c4ccc(C)cc4)cc3F)ccnc2cc1OCCCN1CCCCC1 | 4230 | 1690 | 2310 | –
COc1cc2c(Oc3ccc(NC(=O)/C=C/S(=O)(=O)c4ccccc4F)cc3F)ccnc2cc1OCCCN1CCC(C)CC1 | 760 | 840 | 410 | –
COc1cc2c(Oc3ccc(NC(=O)/C=C/S(=O)(=O)c4ccccc4F)cc3F)ccnc2cc1OCCCN1CCOCC1 | 600 | 420 | 210 | –
COc1cc2c(Oc3ccc(NC(=O)c4cn(-c5ccccc5OC(F)(F)F)cn4)cc3F)ccnc2cc1OCCCN1CCC(C)CC1 | 690 | 150 | 760 | –
COc1cc2c(Oc3ccc(NC(=O)/C=C/S(=O)(=O)c4ccccc4OC)cc3F)ccnc2cc1OCCCN1CCOCC1 | 1180 | 1470 | 770 | –
COc1cc2c(Oc3ccc(NC(=O)c4cn(-c5ccccc5OC)cn4)cc3F)ccnc2cc1OCCCN1CCC(C)CC1 | 300 | 600 | 400 | –
COc1cc2c(Oc3ccc(NC(=O)c4cn(-c5ccccc5OC(F)(F)F)cn4)cc3F)ccnc2cc1OCCCN1CCN(C)CC1 | 170 | 120 | 130 | –
COc1cc2c(Oc3ccc(NC(=O)c4cn(-c5cc(C)ccc5C)cn4)cc3F)ccnc2cc1OCCCN1CCC(C)CC1 | 2220 | 5650 | 7420 | –
COc1cc2c(Oc3ccc(NC(=O)c4cn(-c5cc(C)ccc5C)cn4)cc3F)ccnc2cc1OCCCN1CCOCC1 | 1960 | 3200 | 5480 | –
